In the NIST ThermoML archive (doi:10.1016/j.fluid.2007.08.010):
± gives the expanded uncertainty stated by the source.

Assay: xn = mol fraction of the nth substance listed
Settings: Liquid, Falling or rolling sphere viscometry

CCCCCCCCCCCCCC [tetradecane] + c1ccccc1
viscosity [mPa·s]
Settings	690 kPa	5000 kPa	10000 kPa	20000 kPa	30000 kPa	40000 kPa	50000 kPa	60000 kPa
313.2 K, x2 = 0.179	1.393 ± 0.057	1.461 ± 0.06	1.538 ± 0.063	1.695 ± 0.069	1.86 ± 0.076	2.036 ± 0.083	2.224 ± 0.091	2.434 ± 0.1
313.2 K, x2 = 0.436	1.103 ± 0.045	1.159 ± 0.047	1.223 ± 0.05	1.347 ± 0.055	1.473 ± 0.06	1.6 ± 0.065	1.729 ± 0.071	1.866 ± 0.076
313.2 K, x2 = 0.602	0.905 ± 0.037	0.955 ± 0.039	1.011 ± 0.041	1.118 ± 0.046	1.225 ± 0.05	1.329 ± 0.054	1.432 ± 0.058	1.535 ± 0.063
313.2 K, x2 = 0.798	0.679 ± 0.028	0.712 ± 0.029	0.753 ± 0.031	0.835 ± 0.034	0.916 ± 0.037	1 ± 0.041	1.081 ± 0.044	1.16 ± 0.047
333.2 K, x2 = 0.179	1.045 ± 0.043	1.098 ± 0.045	1.157 ± 0.047	1.273 ± 0.052	1.389 ± 0.057	1.515 ± 0.062	1.657 ± 0.068	1.846 ± 0.076
333.2 K, x2 = 0.436	0.838 ± 0.034	0.884 ± 0.036	0.935 ± 0.038	1.037 ± 0.042	1.135 ± 0.046	1.228 ± 0.05	1.319 ± 0.054	1.421 ± 0.058
333.2 K, x2 = 0.602	0.688 ± 0.028	0.728 ± 0.03	0.775 ± 0.032	0.862 ± 0.035	0.946 ± 0.039	1.032 ± 0.042	1.115 ± 0.045	1.216 ± 0.05
333.2 K, x2 = 0.798	0.528 ± 0.022	0.557 ± 0.023	0.592 ± 0.024	0.661 ± 0.027	0.73 ± 0.03	0.797 ± 0.032	0.863 ± 0.035	0.927 ± 0.038
353.2 K, x2 = 0.179	0.819 ± 0.034	0.855 ± 0.035	0.904 ± 0.037	0.996 ± 0.041	1.08 ± 0.044	1.168 ± 0.048	1.278 ± 0.052	1.391 ± 0.057
353.2 K, x2 = 0.436	0.614 ± 0.025	0.662 ± 0.027	0.705 ± 0.029	0.793 ± 0.032	0.883 ± 0.036	0.956 ± 0.039	1.032 ± 0.042	1.116 ± 0.046
353.2 K, x2 = 0.602	0.537 ± 0.022	0.566 ± 0.023	0.601 ± 0.025	0.668 ± 0.027	0.739 ± 0.03	0.809 ± 0.033	0.878 ± 0.036	0.959 ± 0.039
353.2 K, x2 = 0.798	0.421 ± 0.017	0.443 ± 0.018	0.469 ± 0.019	0.523 ± 0.021	0.578 ± 0.024	0.634 ± 0.026	0.69 ± 0.028	0.745 ± 0.03
373.2 K, x2 = 0.179	0.596 ± 0.024	0.635 ± 0.026	0.678 ± 0.028	0.765 ± 0.031	0.849 ± 0.035	0.926 ± 0.038	1.001 ± 0.041	1.07 ± 0.044
373.2 K, x2 = 0.436	0.485 ± 0.02	0.515 ± 0.021	0.549 ± 0.022	0.62 ± 0.025	0.688 ± 0.028	0.753 ± 0.031	0.819 ± 0.033	0.879 ± 0.036
373.2 K, x2 = 0.602	0.43 ± 0.018	0.452 ± 0.018	0.477 ± 0.019	0.533 ± 0.022	0.59 ± 0.024	0.646 ± 0.026	0.704 ± 0.029	0.761 ± 0.031
373.2 K, x2 = 0.798	0.356 ± 0.015	0.371 ± 0.015	0.389 ± 0.016	0.427 ± 0.017	0.467 ± 0.019	0.509 ± 0.021	0.553 ± 0.023	0.598 ± 0.024
393.2 K, x2 = 0.179	0.466 ± 0.019	0.495 ± 0.02	0.531 ± 0.022	0.601 ± 0.025	0.67 ± 0.027	0.738 ± 0.03	0.804 ± 0.033	0.868 ± 0.036
393.2 K, x2 = 0.436	0.394 ± 0.016	0.419 ± 0.017	0.445 ± 0.018	0.496 ± 0.02	0.554 ± 0.023	0.61 ± 0.025	0.662 ± 0.027	0.717 ± 0.029
393.2 K, x2 = 0.602	0.347 ± 0.014	0.368 ± 0.015	0.39 ± 0.016	0.436 ± 0.018	0.479 ± 0.02	0.524 ± 0.021	0.565 ± 0.023	0.604 ± 0.025
393.2 K, x2 = 0.798	0.307 ± 0.013	0.32 ± 0.013	0.336 ± 0.014	0.367 ± 0.015	0.398 ± 0.016	0.432 ± 0.018	0.466 ± 0.019	0.499 ± 0.02
